ChEMBL document CHEMBL5113413, “New peptidomimetic rhodesain inhibitors with improved selectivity towards human cathepsins” (Eur J Med Chem, 2022)
Activity calls are given as the source filed them. The rule behind the calls is not given here.

Legend:
[1] = molecular target: T1, 20S proteasome (Homo sapiens) (UniProt P49721+P20618+P28074+P28062+P28065+P28072+P25786+P25787+P25788+P25789+P28066+P60900+O14818+Q8TAA3+P40306+A5LHX3+P49720+P28070+Q99436); assay: Inhibition of human 20S proteasome caspase-like activity at 11 uM using Cbz-Leu-Leu-Glu-AMC as fluorogenic substrate by fluorometric assay; format: protein-complex assay
Cathepsin B [2] = molecular target: T2, Cathepsin B (Homo sapiens, UniProt P07858); assay: Irreversible inhibition of human Cathepsin B assessed as inhibition constant using Cbz-Phe-Arg-AMC as fluorogenic substrate by fluorometric assay
Rhodesain = Rhodesain (Trypanosoma brucei rhodesiense, UniProt Q95PM0); assay: Irreversible inhibition of Trypanosoma brucei rhodesiense rhodesain assessed as inhibition constant using Cbz-Phe-Arg-AMC as fluorogenic substrate by fluorometric assay
Chain of Rhodesain (Q95PM0 whole entry): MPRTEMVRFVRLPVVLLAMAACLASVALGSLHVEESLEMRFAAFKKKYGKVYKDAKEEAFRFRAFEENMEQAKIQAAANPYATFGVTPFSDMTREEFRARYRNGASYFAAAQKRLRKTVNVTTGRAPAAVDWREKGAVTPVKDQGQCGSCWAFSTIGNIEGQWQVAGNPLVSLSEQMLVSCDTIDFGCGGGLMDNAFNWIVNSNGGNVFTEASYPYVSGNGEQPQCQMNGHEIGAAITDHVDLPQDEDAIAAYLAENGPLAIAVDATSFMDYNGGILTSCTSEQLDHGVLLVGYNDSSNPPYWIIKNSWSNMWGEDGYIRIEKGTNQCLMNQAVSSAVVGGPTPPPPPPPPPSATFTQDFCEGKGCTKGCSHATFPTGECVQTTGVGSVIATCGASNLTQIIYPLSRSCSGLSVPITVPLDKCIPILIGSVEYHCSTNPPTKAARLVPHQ

[3] = molecular target: Genome polyprotein (dengue virus type 2) (UniProt P29990); assay: Inhibition of Dengue virus NS2B-NS3 protease at 11 uM using Boc-Gly-Arg-Arg-AMC as fluorogenic substrate by fluorometric assay
[4] = tested on: Trypanosoma brucei brucei; assay: Antitrypanosomal activity against Trypanosoma brucei brucei BS449 assessed as luminescence incubated for 48 hrs by ATPlite assay; format: functional, organism-based; details: BS449, 48 h
Procathepsin L [5] = molecular target: T3, Procathepsin L (Homo sapiens, UniProt P07711); assay: Irreversible inhibition of human Cathepsin L assessed as inhibition constant using Cbz-Phe-Arg-AMC as fluorogenic substrate by fluorometric assay
Target sequence in this assay (P07711 whole entry): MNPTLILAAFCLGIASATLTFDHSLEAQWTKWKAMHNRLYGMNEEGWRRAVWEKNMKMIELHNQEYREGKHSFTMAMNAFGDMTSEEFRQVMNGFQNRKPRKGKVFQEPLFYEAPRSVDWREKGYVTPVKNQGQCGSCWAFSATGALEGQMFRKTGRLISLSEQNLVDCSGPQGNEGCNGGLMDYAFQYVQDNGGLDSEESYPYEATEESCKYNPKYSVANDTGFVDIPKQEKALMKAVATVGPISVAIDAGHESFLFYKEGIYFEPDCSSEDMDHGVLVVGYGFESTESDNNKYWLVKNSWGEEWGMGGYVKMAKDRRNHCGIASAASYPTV

Cathepsin B [6] = molecular target: T2, Cathepsin B; assay: Inhibition of human Cathepsin B at 20 uM using Cbz-Phe-Arg-AMC as fluorogenic substrate by fluorometric assay
[7] = molecular target: Rhodesain (Trypanosoma brucei rhodesiense) (UniProt Q95PM0); assay: Reversible inhibition of Trypanosoma brucei rhodesiense rhodesain assessed as recovery of enzyme activity preincubated for 30 mins followed by substrate addition using Cbz-Phe-Arg-AMC as fluorogenic substrate by fluorometric 100-fold dilution assay
Chain of Rhodesain (Trypanosoma brucei rhodesiense) (Q95PM0 1-450): as the sequence (Q95PM0 whole entry) above

[8] = molecular target: Rhodesain (Trypanosoma brucei rhodesiense) (UniProt Q95PM0); assay: Irreversible inhibition of Trypanosoma brucei rhodesiense rhodesain assessed as no recovery of enzyme activity preincubated for 30 mins followed by substrate addition using Cbz-Phe-Arg-AMC as fluorogenic substrate by fluorometric 100-fold dilution assay
[9] = molecular target: T1, 20S proteasome (Homo sapiens); assay: Inhibition of human 20S proteasome trypsin-like activity at 11 uM using Boc-Leu-Arg-Arg-AMC as fluorogenic substrate by fluorometric assay; format: protein-complex assay
Procathepsin L [10] = molecular target: T3, Procathepsin L; assay: Inhibition of human Cathepsin L at 20 uM using Cbz-Phe-Arg-AMC as fluorogenic substrate by fluorometric assay
Target sequence in this assay (P07711 114-333 limits assumed): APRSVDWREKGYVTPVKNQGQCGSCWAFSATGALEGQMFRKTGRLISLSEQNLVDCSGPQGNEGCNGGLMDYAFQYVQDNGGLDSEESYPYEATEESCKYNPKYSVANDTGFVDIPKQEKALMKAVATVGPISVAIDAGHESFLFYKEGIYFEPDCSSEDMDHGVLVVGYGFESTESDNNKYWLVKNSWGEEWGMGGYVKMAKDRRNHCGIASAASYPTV

[11] = molecular target: Rhodesain (Trypanosoma brucei rhodesiense) (UniProt Q95PM0); assay: Inhibition of Trypanosoma brucei rhodesiense rhodesain at 20 uM using Cbz-Phe-Arg-AMC as fluorogenic substrate by fluorometric assay
[12] = molecular target: Rhodesain (Trypanosoma brucei rhodesiense) (UniProt Q95PM0); assay: Irreversible inhibition of Trypanosoma brucei rhodesiense rhodesain assessed as Kinact using Cbz-Phe-Arg-AMC as fluorogenic substrate by fluorometric assay
[13] = molecular target: Rhodesain (Trypanosoma brucei rhodesiense) (UniProt Q95PM0); assay: Irreversible inhibition of Trypanosoma brucei rhodesiense rhodesain assessed as second order rate constant using Cbz-Phe-Arg-AMC as fluorogenic substrate by fluorometric assay
[14] = Cytotoxicity against mouse J774.1 cells assessed as reduction in cell viability incubated for 48 hrs by MTT assay; format: toxicity, cell-based
Cathepsin B [15] = molecular target: T2, Cathepsin B; assay: Irreversible inhibition of human Cathepsin B assessed as Kinact using Cbz-Phe-Arg-AMC as fluorogenic substrate by fluorometric assay
Procathepsin L [16] = molecular target: T3, Procathepsin L; assay: Irreversible inhibition of human Cathepsin L assessed as Kinact using Cbz-Phe-Arg-AMC as fluorogenic substrate by fluorometric assay
Target sequence in this assay (P07711 114-333 limits assumed): as above

Procathepsin L [17] = molecular target: T3, Procathepsin L; assay: Irreversible inhibition of human Cathepsin L assessed as second order rate constant using Cbz-Phe-Arg-AMC as fluorogenic substrate by fluorometric assay
Target sequence in this assay (P07711 114-333 limits assumed): as above

Cathepsin B [18] = molecular target: T2, Cathepsin B; assay: Irreversible inhibition of human Cathepsin B assessed as second order rate constant using Cbz-Phe-Arg-AMC as fluorogenic substrate by fluorometric assay
[19] = molecular target: T1, 20S proteasome (Homo sapiens); assay: Inhibition of human 20S proteasome chymotrypsin-like activity at 11 uM using Succ-Leu-Leu-Val-Tyr-AMC as fluorogenic substrate by fluorometric assay; format: protein-complex assay

Structure (SMILES)	Ki (Rhodesain) [nM]	EC50 [4] [nM]	Ki (Procathepsin L [5]) [nM]	inhibition (Cathepsin B [6]) [%]	Kinact [12] [s⁻¹]	Second-order inactivation rate constant (kinact/Ki) [13]	CC50 at 48 h [14] [nM]	further results
O=C(NCc1ccccc1C(=O)N[C@H](/C=C/S(=O)(=O)Oc1ccccc1)CCc1ccccc1)c1ccncc1	9	4200	1150					inhibition [1]: 41%; Ki (Cathepsin B [2]): 1010 nM; inhibition [3]: 26%
O=C(NCc1ccccc1C(=O)N[C@H](/C=C(\F)S(=O)(=O)c1ccccc1)CCc1ccccc1)c1ccncc1	430		14100	< 10				
O=C(NCc1ccccc1C(=O)N[C@H](/C=C(\F)S(=O)(=O)c1ccccc1)CCc1ccccc1)c1ccc2c(c1)OCCO2	339			< 10				inhibition [1]: 34%; inhibition [7]: Active; inhibition [8]: Active; inhibition [9]: 14%; inhibition (Procathepsin L [10]): 31%
CN1CCN(C(=O)NCc2ccccc2C(=O)N[C@H](/C=C(\F)S(=O)(=O)c2ccccc2)CCc2ccccc2)CC1								inhibition [11]: 18%
O=C(O)c1ccc(C(=O)NCc2ccccc2C(=O)N[C@H](/C=C/S(=O)(=O)c2ccccc2)CCc2ccccc2)cc1	4030				0.0031	0.0077 10^5/M/s		
O=C(NCc1ccccc1C(=O)N[C@H](/C=C(\F)S(=O)(=O)Oc1ccccc1)CCc1ccccc1)c1ccc2c(c1)OCCO2	379	3000		< 10			> 100000	inhibition [7]: Active; inhibition [8]: Active; inhibition (Procathepsin L [10]): 23%
O=C(NCc1ccccc1C(=O)N[C@H](/C=C/S(=O)(=O)Cc1ccccc1)CCc1ccccc1)c1ccc2c(c1)OCCO2	59			< 10	0.0038	0.64 10^5/M/s		inhibition (Procathepsin L [10]): 39%
O=C(Cc1ccccc1C(=O)N[C@H](/C=C/S(=O)(=O)c1ccccc1)CCc1ccccc1)Nc1cccc(C(=O)O)c1	17600	> 40000						
O=C(O)c1cccc(C(=O)NCc2ccccc2C(=O)N[C@H](/C=C/S(=O)(=O)c2ccccc2)CCc2ccccc2)c1	7430	15000					> 100000	
O=C(NCc1ccccc1C(=O)N[C@H](/C=C/S(=O)(=O)Oc1ccccc1)CCc1ccccc1)c1ccc2c(c1)OCCO2	10		310		0.0079	7.9 10^5/M/s		inhibition [1]: 43%; Ki (Cathepsin B [2]): 800 nM; Kinact (Cathepsin B [15]): 0.013 s⁻¹; Kinact (Procathepsin L [16]): 0.0104 s⁻¹; Second-order inactivation rate constant (Procathepsin L [17]): 3.34 10^4/M/s; inhibition [8]: Active; inhibition [3]: 31%; Kdiss (Cathepsin B [18]): 1.64 10^4/M/s; inhibition [19]: 12%
O=C(NCc1ccccc1C(=O)N[C@H](/C=C(\F)S(=O)(=O)Oc1ccccc1)CCc1ccccc1)c1ccncc1	916	1800					> 100000	
O=C(NCc1ccccc1C(=O)N[C@H](/C=C(\F)S(=O)(=O)Cc1ccccc1)CCc1ccccc1)c1ccc2c(c1)OCCO2	491			< 10				inhibition [7]: Active; inhibition [8]: Active; inhibition (Procathepsin L [10]): 15%
O=C(NCc1ccccc1C(=O)N[C@H](/C=C/S(=O)(=O)c1ccccc1)CCc1ccccc1)c1ccncc1	107		2250	44	0.0046	0.43 10^5/M/s		Kinact (Procathepsin L [16]): 0.0026 s⁻¹; Second-order inactivation rate constant (Procathepsin L [17]): 1.16 10^3/M/s
O=C(NCc1ccccc1C(=O)N[C@H](/C=C/S(=O)(=O)c1ccccc1)CCc1ccccc1)c1cccc(O)c1	651	3300					36000	
CNC(=O)Cc1ccccc1C(=O)N[C@H](/C=C/S(=O)(=O)c1ccccc1)CCc1ccccc1	470	13000					> 100000	
O=C(NCc1ccccc1C(=O)N[C@H](/C=C/S(=O)(=O)Oc1ccccc1)CCc1ccccc1)c1cc(F)cc(F)c1	15		560		0.0117	7.8 10^5/M/s		inhibition [1]: 33%; Ki (Cathepsin B [2]): 760 nM; Kinact (Cathepsin B [15]): 0.0071 s⁻¹; Kinact (Procathepsin L [16]): 0.0022 s⁻¹; Second-order inactivation rate constant (Procathepsin L [17]): 3.92 10^3/M/s; inhibition [3]: 35%; Kdiss (Cathepsin B [18]): 9.34 10^3/M/s; inhibition [19]: 14%
